Counter-ions that a name gives are not always drawn. Like-named read-outs stand apart in the source and are kept apart here.

Common to all, as to type: cell-based
For series [1], the system named is SUDHL10 cells. The series can be described thus: Induction of caspase-3/7 activity in SUDHL10 cells (Assay 4). How it is done: (§1) Induction of Caspase-3/7 Activity Upon Treatment of Cells with Selected Compounds
(§2) The BH3-domain of MCL-1 sequesters pro-apoptotic proteins, thereby inhibiting apoptosis. In contrast, MCL-1 inhibitors are expected to antagonize this effect leading to an increase in apoptosis, which can be determined by measuring the activity of caspase-3/7.
(§3) The activity of caspase-3/7 was determined in DLBCL (Diffuse large B-cell lymphoma) cell lines (SUDHL5 and SUDHL10) upon treatment with different compounds, using the Caspase-Glo® 3/7 reagent from Promega (G8092).
(§4) As a control, medium without cells was also added to the plate. Cells were incubated in a humidified incubator at 37° C. overnight.
(§5) Rim wells were excluded. The cells were incubated for 3 h hours in a humidified incubator at 37° C. After this incubation, 30 μL of Caspase-Glo® 3/7 reagent (Promega G8092) was added to each well using the Multidrop Combi Reagent Dispenser, followed by 1 h incubation at 37° C. Finally, luminescence was read at 0.1 ms, with a gain of 3000 using the PHERAstar FS microplate reader (BMG Labtech).
(§6) For the evaluation of the results, the background measured with “medium-only” was subtracted from all other values. Then, the values were normalized to DMSO-only treated cells (every value was divided by the mean of the DMSO control).

The next series deals with HMC-1-8 cells. The series can be described thus: Antiproliferation assay HMC-1-8 (Assay 7). How it is done: (§7) Assessment of the Anti-Proliferative Effect of Compounds in Different Cell Lines
(§8) The impact of compounds on the proliferation of different cell lines was assessed using the CellTiter-Glo® Luminescent Cell Viability reagent from Promega (G7573).
(§9) In parallel, cells were plated in a reference (day 0) plate for time zero determination. Cells were incubated in a humidified incubator at 37° C. overnight.
(§10) Rim wells were excluded. The cells were incubated for 72 h hours in a humidified incubator at 37° C. The day 0 plate was measured by adding 30 μL/well of CTG solution (CellTiter-Glo® Luminescent Cell Viability reagent, Promega G7573) to time zero wells in the reference plate followed by a 10 minutes incubation and luminescence reading at 0.1 ms. using the PHERAstar FS microplate reader (BMG Labtech).
(§11) After 72 h incubation, the treated plates were measured in the same way as the day 0 plate mentioned above. The Bella DRC Master Sheet was used to calculate IC50s, with CI=day 0 values and C0=DMSO control values.

The subject of series [2] is SUDHL5 cells. In words: Induction of caspase-3/7 activity in SUDHL5 cells (Assay 4). How it is done:
as §1, §2, §3, §4, §5, §6

The subject of another series is AMO-1 cells. In words: Antiproliferation assay AMO-1 (Assay 7). As for the experimental part:
as §7, §8, §9, §10, §11

For series [3], the system named is SUDHL5 cells. The series can be described thus: Induction of cytotoxicity in SUDHL5 cells (Assay 6). As to conditions: 5 h, CellTiter-Glo; read-out: Cytotox SUDHL5 IC50 (median). Summed up:
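Following overnight seeding at 37 °C, cells are treated with compound for 5 h, after which CellTiter-Glo reagent is added and luminescence measured following a 15 min room-temperature shake.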
On the technique in general: ATP-based viability assays read luminescence as a measure of living cells.

Series [4] deals with SUDHL5 cells. In words: Antiproliferation assay SUDHL5 (Assay 7). How it is done: as §7, §8, §9, §10, §11
The test system of series [5] is SUDHL10 cells. In words: Induction of cytotoxicity in SUDHL10 cells (Assay 6). The following applies: 5 h, CellTiter-Glo; read-out: Cytotox SUDHL10 IC50 (median). How it is done: Assay 6 Induction of Cytotoxicity Upon Treatment of Cells with Selected Compounds
In principle, compounds that induce apoptosis will concomitantly induce cell cytotoxicity. Therefore, cytotoxicity assays were run in parallel in SUDHL5 and SUDHL10 cells.
As a control, medium without cells was also added to the plate. Cells were incubated in a humidified incubator at 37° C. overnight. […] Rim wells were excluded. The cells were incubated for 5 h hours in a humidified incubator at 37° C. After this incubation, 30 μL of CellTiter-Glo® Luminescent Cell Viability reagent (Promega, G7573) was added to each well using the Multidrop Combi Reagent Dispenser, followed by 15 min incubation on a shaker at room temperature. Finally, luminescence was read at 0.1 ms, with a gain of 3000 using the PHERAstar FS microplate reader (BMG Labtech).

Where [6] appears, read: caspase-3/7 induction, 3 h; read-out: Caspase SUDHL10 EC50 (median).
The mark [7] stands for this setting: 72 h, CellTiter-Glo; read-out: Antiproli HMC-1-8 IC50 median.
Setting [8] is: caspase-3/7 induction, 3 h; read-out: Caspase SUDHL5 EC50 (median).
Where [9] appears, read: 72 h, CellTiter-Glo; read-out: Antiproli AMO-1 IC50 median.
Where [10] appears, read: 72 h, CellTiter-Glo; read-out: Antiproli SUDHL5 IC50 (median).

On to `CCc1c2c(nn1C)C(CCN(C)C)OCCCCn1c(C(=O)O)c(CCCOc3cccc4cc(F)ccc34)c3ccc(Cl)c-2c31` (single isomer, unassigned) [Example 84, 4-chloro-15-[2-(dimethylamino)ethyl]-3-ethyl-7-{3-[(6-fluoronaphthalen-1-yl)oxy]propyl}-2-methyl-2,10,11,12,13,15-hexahydropyrazolo[4′,3′:9,10][1,6]oxazacycloundecino[8,7,6-hi]indole-8-carboxylic Acid], for which the concentration for a half-maximal effect (EC50) – broadly, the concentration needed to bring the measured effect to its halfway point – in the series with SUDHL10 cells [1] (setting [6]) was determined as 5.4 µM; in the series on SUDHL5 cells [2] (setting [8]) it was 1.8 µM. In addition, the IC50 (commonly the concentration that inhibits the measured activity by half) was more than 33 µM with HMC-1-8 cells (setting [7]); 9.56 µM with AMO-1 cells (setting [9]); 1.7 µM in the series with SUDHL5 cells [3]; 3.1 µM with SUDHL5 cells [4] (setting [10]); 4.4 µM in the series on SUDHL10 cells [5].
With `CCc1c2c(nn1C)C(CCN(C)C)OCCCCn1c(C(=O)O)c(CCCOc3cccc4cc(F)ccc34)c3ccc(Cl)c-2c31` (single isomer, unassigned) [Example 85, 4-chloro-15-[2-(dimethylamino)ethyl]-3-ethyl-7-{3-[(6-fluoronaphthalen-1-yl)oxy]propyl}-2-methyl-2,10,11,12,13,15-hexahydropyrazolo[4′,3′:9,10][1,6]oxazacycloundecino[8,7,6-hi]indole-8-carboxylic Acid], the 50% effective concentration (EC50) with SUDHL10 cells [1] (setting [6]) was determined as 1.6 µM; with SUDHL5 cells [2] (setting [8]) it was 0.95 µM. Also, the IC50 in the series on HMC-1-8 cells (setting [7]) was more than 33 µM; with AMO-1 cells (setting [9]) it was 5.17 µM; with SUDHL5 cells [3], 0.87 µM; with SUDHL5 cells [4] (setting [10]), 0.91 µM; with SUDHL10 cells [5], 2 µM.
For the compound `CCc1c2c(nn1C)C(CCN1CC(F)(F)C1)OCCCCn1c(C(=O)O)c(CCCOc3cccc4cc(F)ccc34)c3ccc(Cl)c-2c31` (single isomer, unassigned; (-)) [Example 79, (−)-4-chloro-15-[2-(3,3-difluoroazetidin-1-yl)ethyl]-3-ethyl-7-{3-[(6-fluoronaphthalen-1-yl)oxy]propyl}-2-methyl-2,10,11,12,13,15-hexahydropyrazolo[4′,3′:9,10][1,6]oxazacycloundecino[8,7,6-hi]indole-8-carboxylic Acid—N-ethylethanamine Salt], the half-maximal effective concentration (EC50) in the series with SUDHL10 cells [1] (setting [6]) came to 5.4 µM; in the series with SUDHL5 cells [2] (setting [8]) it was 3.7 µM. The 50% inhibitory concentration (IC50) with HMC-1-8 cells (setting [7]) was found to be 23.5 µM; with AMO-1 cells (setting [9]) it was 3.7 µM; in the series on SUDHL5 cells [3], 4.1 µM; in the series with SUDHL5 cells [4] (setting [10]), 2.2 µM; in the series on SUDHL10 cells [5], 3.8 µM.
For the compound `CCc1c2c(nn1C)C(CCC1CCOCC1)OCCCCn1c(C(=O)O)c(CCCOc3cccc4cc(F)ccc34)c3ccc(Cl)c-2c31` (single isomer, unassigned; enantiomer 2) [Example 64, (−)-4-chloro-3-ethyl-7-{3-[(6-fluoronaphthalen-1-yl)oxy]propyl}-2-methyl-15-[2-(oxan-4-yl)ethyl]-2,10,11,12,13,15-hexahydropyrazolo[4′,3′:9,10][1,6]oxazacycloundecino[8,7,6-hi]indole-8-carboxylic Acid—N-ethylethanamine Salt (Enantiomer 2)], the EC50 turned out to be 1.3 µM in the series on SUDHL10 cells [1] (read-out: Caspase SUDHL10 EC50 (median); caspase-3/7 induction, 3 h) and 0.74 µM in the series with SUDHL5 cells [2] (read-out: Caspase SUDHL5 EC50 (median); caspase-3/7 induction, 3 h). Also, the IC50 was 7.51 µM with HMC-1-8 cells (read-out: Antiproli HMC-1-8 IC50 median; 72 h, CellTiter-Glo); 1.03 µM in the series on AMO-1 cells (read-out: Antiproli AMO-1 IC50 median; 72 h, CellTiter-Glo); 0.81 µM in the series with SUDHL5 cells [3]; 1.6 µM with SUDHL5 cells [4] (read-out: Antiproli SUDHL5 IC50 (median); 72 h, CellTiter-Glo); 2.6 µM with SUDHL10 cells [5].
For `CCc1c2c(nn1C)C(CCC(C)(C)O)OCCCCn1c(C(=O)O)c(CCCOc3cccc4cc(F)ccc34)c3ccc(Cl)c-2c31` (single isomer, unassigned; enantiomer 2) [Example 76, (−)-4-chloro-3-ethyl-7-{3-[(6-fluoronaphthalen-1-yl)oxy]propyl}-15-(3-hydroxy-3-methylbutyl)-2-methyl-2,10,11,12,13,15-hexahydropyrazolo[4′,3′:9,10][1,6]oxazacycloundecino[8,7,6-hi]indole-8-carboxylic Acid—N-ethylethanamine Salt (Enantiomer 2)], the figures for the concentration giving a half-maximal response (EC50) in the series with SUDHL10 cells [1] (setting [6]) and in the series with SUDHL5 cells [2] (setting [8]) were 5.8 µM and 3.3 µM, respectively. Moreover, the IC50 in the series with HMC-1-8 cells (setting [7]) is 13 µM; in the series with AMO-1 cells (setting [9]), 3.87 µM; in the series with SUDHL5 cells [3] it was 3.6 µM; with SUDHL5 cells [4] (setting [10]), 4.6 µM; in the series with SUDHL10 cells [5] it was 5.2 µM.

The record behind these values is patent publication US11440923B2, “Substituted macrocyclic indole derivatives” (Bayer Aktiengesellschaft, priority 2017, dated 2022).
